Results reported in US20130197085A1, “AGENT AND METHOD FOR STABILIZING MEMBRANE PROTEIN” (priority 2007, published 2013).

Tests used:
Assay type in all cases: cell-based
D482G BSEP [1] = molecular target: T1, D482G BSEP (Homo sapiens, UniProt O95342, D482G/L339V); test: Transcellular transport assay of [^3H] TC across MDCKII monolayer; settings: 24 hours
T1 construct: expressed in transfected cells; host or cells: MDCKII cells infected with recombinant adenovirus
Description: (§1) MDCKII cells were dispersed on a Transwell membrane insert (pore size: […]; Falcon) of a 24-well plate, resulting in a density of 1.5×10^5 cells/insert. Two days after the culture, the confluent cells were infected with recombinant adenoviruses having the cDNAs of wild-type, E297G and D482G BSEPs, and GFP, at 50 MOI. […] After completion of the treatment for 24 hours, a transcellular transport assay was carried out (see Mita et al., Am J Physiol Gastrointest Liver Physiol 290: G550-G556, 2006).
(§2) The apparent efflux clearance across the apical membrane (PSapical) was calculated by dividing a steady rate of the transcellular transport of [^3H] TC for 2 hours by the intracellular concentration of the [^3H] TC at the termination of the experiment (2 hours later).

E297G BSEP [2] = molecular target: T2, E297G BSEP (Homo sapiens, UniProt O95342, E297G/L339V); test: as above; settings: 24 hours
T2 construct: expressed in transfected cells; host or cells: MDCKII cells infected with recombinant adenovirus
Description: as §1, §2

D482G BSEP [3] = molecular target: T1, D482G BSEP; test: Treatment with actinomycin D and cycloheximide, upregulation of mature BSEP by 4PBA in MDCKII cells; settings: 1 mM 4PBA, 6 hours
Description: (§3) MDCKII cells were dispersed on a 6-well plate, resulting in a density of 2.5×10^5 cells/well. After completion of the culture for 24 hours, the confluent cells were infected with recombinant adenoviruses having the cDNAs of wild-type, E297G and D482G BSEPs, and GFP, at 200 MOI. After completion of the infection, the cells were cultured for 36 hours. Thereafter, in order to inhibit mRNA synthesis, the cells were treated in the presence or absence of 5 μg/ml actinomycin D (Sigma). Otherwise, in order to inhibit protein synthesis, the cells were treated in the presence or absence of 20 μg/ml cycloheximide (Sigma). After completion of the treatment for 2 hours, in the presence or absence of actinomycin D or in the presence or absence of cycloheximide, 4PBA was added to the cells to a concentration of 1 mM. At the time point of 6 hours (E297G and D482G BSEPs) or 8 hours (wild-type BSEP) after the 4PBA treatment, a crude membrane fraction was prepared. The obtained fraction was separated by 6% SDS-PAGE, and Western blotting was then carried out.

E297G BSEP [4] = molecular target: T2, E297G BSEP; test: as above; settings: 1 mM 4PBA, 6 hours
Description: as §3

wild-type BSEP [5] = molecular target: T3, wild-type BSEP (Homo sapiens, UniProt O95342, L339V); test: as above; settings: 1 mM 4PBA, 8 hours
T3 construct: expressed in transfected cells; host or cells: MDCKII cells infected with recombinant adenovirus
Description: as §3

D482G BSEP [6] = molecular target: T1, D482G BSEP; test: Brefeldin A washing experiment, maturation of BSEP in MDCKII cells; settings: 1 mM 4PBA
Description: as §3, with “for 12” for “for 36”, “inhibit the transport of BSEP from the endoplasmic reticulum to the Golgi body,” for “inhibit mRNA synthesis,”, “μg/ml brefeldin A” for “μg/ml actinomycin D (Sigma). Otherwise, in order to inhibit protein synthesis, the cells were treated in the presence or absence of 20 μg/ml cycloheximide”, “of brefeldin A,” for “of actinomycin D or in the presence or absence of cycloheximide,”, “of 12” for “of 6”, “hours” for “hours (E297G and D482G BSEPs) or 8 hours (wild-type BSEP)”
(§4) The promotion of a process of converting an immature BSEP existing in the endoplasmic reticulum to a mature BSEP existing on the cell surface is considered to be a post-translation mechanism that may be associated with an increase in the expression of the mature BSEP on the cell surface. In order to evaluate the effects of the 4PBA treatment on the maturation of a BSEP, the transport of the BSEP from the endoplasmic reticulum to the Golgi body was inhibited with brefeldin A (BFA), the BFA was then washed out, and the maturation rate of the BSEP on MDCKII cells was measured. BFA is an agent for inducing the accumulation of an immature BSEP existing in the endoplasmic reticulum (FIGS. 5A and 5B). The maturation rate was evaluated by washing out such BFA and then measuring an increased amount of the band density of a mature BSEP over time according to Western blotting. The band density of the mature BSEP was calculated by subtracting the band density at 0 (zero) hour from the band density at each measurement time (FIG. 5B). […] In addition, in the case of mature BSEPs, the expression levels were not changed until 3 hours after the washing out of BFA, regardless of the presence or absence of 4PBA. […] At the time point 8 hours after the washing out of BFA, the MDCKII cells treated with 4PBA were compared with the MDCKII cells that had not been treated with 4PBA. As a result, the expression level of a mature BSEP in the MDCKII cells treated with 4PBA was higher than the same expression level in the MDCKII cells that had not been treated with 4PBA.

E297G BSEP [7] = molecular target: T2, E297G BSEP; test: as above; settings: 1 mM 4PBA
Description: as §3, with “for 12” for “for 36”, “inhibit the transport of BSEP from the endoplasmic reticulum to the Golgi body,” for “inhibit mRNA synthesis,”, “μg/ml brefeldin A” for “μg/ml actinomycin D (Sigma). Otherwise, in order to inhibit protein synthesis, the cells were treated in the presence or absence of 20 μg/ml cycloheximide”, “of brefeldin A,” for “of actinomycin D or in the presence or absence of cycloheximide,”, “of 12” for “of 6”, “hours” for “hours (E297G and D482G BSEPs) or 8 hours (wild-type BSEP)”
as §4

wild-type BSEP [8] = molecular target: T3, wild-type BSEP; test: as above; settings: 1 mM 4PBA
Description: as §3, with “for 12” for “for 36”, “inhibit the transport of BSEP from the endoplasmic reticulum to the Golgi body,” for “inhibit mRNA synthesis,”, “μg/ml brefeldin A” for “μg/ml actinomycin D (Sigma). Otherwise, in order to inhibit protein synthesis, the cells were treated in the presence or absence of 20 μg/ml cycloheximide”, “of brefeldin A,” for “of actinomycin D or in the presence or absence of cycloheximide,”, “of 12” for “of 6”, “hours” for “hours (E297G and D482G BSEPs) or 8 hours (wild-type BSEP)”
as §4

[9] = tested on: intrinsic dipeptidyl peptidase IV (DPPIV); test: Decomposition rate of cell surface-expressed protein (biotin-labeling) in MDCKII cells; settings: 1 mM 4PBA
Description: MDCKII cells were dispersed on a 6-well plate, resulting in a density of 2.5×10^5 cells/well. After completion of the culture for 24 hours, the confluent cells were infected with recombinant adenoviruses having the cDNAs of wild-type, E297G and D482G BSEPs, and GFP, at 200 MOI. After completion of the infection, the cells were cultured for 24 hours. […] After completion of the treatment for 24 hours, the cells were biotinylated (see Hayashi et al., Hepatology, 41: 916-924, 2005).
The remaining biotinylated protein was isolated, and it was then subjected to 6% SDS-PAGE, followed by Western blotting.

[10] = 1 mM, PSapical minus PSapical of GFP cells
[11] = 8 hours after the washing out of BFA
[12] = immediately after the washing out of BFA (hour 0)

T3 sequence (O95342 whole entry L339V): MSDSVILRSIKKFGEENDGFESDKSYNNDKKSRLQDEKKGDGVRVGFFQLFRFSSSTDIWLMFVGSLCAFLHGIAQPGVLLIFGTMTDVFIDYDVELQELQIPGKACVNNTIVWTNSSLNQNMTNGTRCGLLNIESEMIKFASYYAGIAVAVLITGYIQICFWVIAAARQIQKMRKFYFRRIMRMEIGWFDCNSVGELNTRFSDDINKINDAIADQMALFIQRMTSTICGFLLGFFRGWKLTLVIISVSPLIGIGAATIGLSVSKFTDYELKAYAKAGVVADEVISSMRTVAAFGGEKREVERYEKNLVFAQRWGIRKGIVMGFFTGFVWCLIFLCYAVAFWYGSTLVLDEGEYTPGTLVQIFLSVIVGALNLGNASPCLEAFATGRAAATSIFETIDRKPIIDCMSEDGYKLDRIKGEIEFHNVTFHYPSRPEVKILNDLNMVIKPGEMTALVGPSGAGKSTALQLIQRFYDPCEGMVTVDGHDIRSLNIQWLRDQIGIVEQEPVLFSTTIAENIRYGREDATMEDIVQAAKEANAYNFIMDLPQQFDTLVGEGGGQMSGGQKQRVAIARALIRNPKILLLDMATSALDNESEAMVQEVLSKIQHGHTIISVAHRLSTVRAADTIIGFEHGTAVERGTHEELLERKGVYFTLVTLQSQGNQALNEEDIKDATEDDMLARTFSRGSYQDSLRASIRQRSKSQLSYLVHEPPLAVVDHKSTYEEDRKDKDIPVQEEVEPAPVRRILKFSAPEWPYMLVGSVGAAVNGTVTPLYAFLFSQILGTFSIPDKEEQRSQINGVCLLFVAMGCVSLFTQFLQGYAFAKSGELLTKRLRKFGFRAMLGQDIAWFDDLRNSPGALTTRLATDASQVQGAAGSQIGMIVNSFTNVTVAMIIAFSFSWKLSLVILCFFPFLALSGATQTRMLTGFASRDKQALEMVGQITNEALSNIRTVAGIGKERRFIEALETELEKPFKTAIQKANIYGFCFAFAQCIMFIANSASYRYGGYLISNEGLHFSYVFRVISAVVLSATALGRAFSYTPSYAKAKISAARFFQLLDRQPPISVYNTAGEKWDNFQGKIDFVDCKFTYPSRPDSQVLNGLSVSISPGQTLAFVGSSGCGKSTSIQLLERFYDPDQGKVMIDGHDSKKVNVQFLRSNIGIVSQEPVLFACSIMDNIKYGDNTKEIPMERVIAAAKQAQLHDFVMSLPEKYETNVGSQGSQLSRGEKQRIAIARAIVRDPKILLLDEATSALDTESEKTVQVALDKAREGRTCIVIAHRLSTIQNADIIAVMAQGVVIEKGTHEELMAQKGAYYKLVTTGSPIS
T2 sequence (O95342 whole entry E297G/L339V): as the sequence (O95342 whole entry L339V) above, with E297G counted along it
T1 sequence (O95342 whole entry L339V/D482G): as the sequence (O95342 whole entry L339V) above, with D482G counted along it

**Q.** Which “efflux of [^3H] TC from the apical side to the base side” value (D482G BSEP [1]; 1 mM, MDCKII monolayer) does the source give for `O=C(O)CCCc1ccccc1` [4PBA, 4-phenylbutyric acid] here?
**A.** did not influence

**Q.** What about the “efflux of [^3H] TC from the base side to the apical side, increase” value (D482G BSEP [1]; 1 mM, MDCKII monolayer) of the same compound?
**A.** 3 times

**Q.** And the “BSEP-dependent PSapical value (PSapical, BSEP), increase” value (D482G BSEP [1]; [10])?
**A.** 2.8 times

**Q.** And the PSapical value (D482G BSEP [1]; 4PBA treatment 1 mM)?
**A.** increased

**Q.** And the “efflux of [^3H] TC from the apical side to the base side” value (E297G BSEP [2]; 1 mM, MDCKII monolayer)?
**A.** did not influence

**Q.** And the “efflux of [^3H] TC from the base side to the apical side, increase” value (E297G BSEP [2]; 1 mM, MDCKII monolayer)?
**A.** 2.5 times

**Q.** What about the “BSEP-dependent PSapical value (PSapical, BSEP), increase” value (E297G BSEP [2]; [10]) of the same compound?
**A.** 3.0 times

**Q.** What about the PSapical value (E297G BSEP [2]; 4PBA treatment 1 mM) of the same compound?
**A.** increased

**Q.** What about the “effect of transcription inhibition by actinomycin D on the increase in expression of mature BSEP due to 4PBA” value (D482G BSEP [3]; actinomycin D 5 μg/ml) of the same compound?
**A.** did not affect

**Q.** And the “effect of translation inhibition by cycloheximide on the increase in expression of mature BSEP due to 4PBA” value (D482G BSEP [3]; cycloheximide 20 μg/ml)?
**A.** did not affect

**Q.** And the “effect of transcription inhibition by actinomycin D on the increase in expression of mature BSEP due to 4PBA” value (E297G BSEP [4]; actinomycin D 5 μg/ml)?
**A.** did not affect

**Q.** And the “effect of translation inhibition by cycloheximide on the increase in expression of mature BSEP due to 4PBA” value (E297G BSEP [4]; cycloheximide 20 μg/ml)?
**A.** did not affect

**Q.** What about the “effect of transcription inhibition by actinomycin D on the increase in expression of mature BSEP due to 4PBA” value (wild-type BSEP [5]; actinomycin D 5 μg/ml) of the same compound?
**A.** did not affect

**Q.** What about the “effect of translation inhibition by cycloheximide on the increase in expression of mature BSEP due to 4PBA” value (wild-type BSEP [5]; cycloheximide 20 μg/ml) of the same compound?
**A.** did not affect

**Q.** And the “expression level of mature BSEP, 4PBA-treated vs not treated cells” value (“expression level … vs not treated cells” below) (D482G BSEP [6]; [11])?
**A.** higher

**Q.** What about the “expression level of immature BSEP in the endoplasmic reticulum, with vs without 4PBA” value (“expression level … vs without 4PBA” for short) (D482G BSEP [6]; [12]) of the same compound?
**A.** almost the same

**Q.** And the “expression level … vs not treated cells” value (E297G BSEP [7]; [11])?
**A.** higher

**Q.** And the “expression level … vs without 4PBA” value (E297G BSEP [7]; [12])?
**A.** almost the same

**Q.** What about the “expression level … vs not treated cells” value (wild-type BSEP [8]; [11]) of the same compound?
**A.** higher

**Q.** What about the “expression level … vs without 4PBA” value (wild-type BSEP [8]; [12]) of the same compound?
**A.** almost the same

**Q.** What about the “decomposition of intrinsic DPPIV on the cell surface” value [9] of the same compound?
**A.** not influenced
